One substance from patent US20030236223A1, “Metastasis modulating activity of highly sulfated oligosaccharides” (Greenville Hospital System, priority 2002, published 2003) can be followed below.

Test [1] concerns murine B16 melanoma cells. The test can be described thus: B16 murine melanoma cell proliferation (Promega Cell Titer 96 AQueous assay). It is filed as cell-based. The note with it: 48 hours incubation, 0-90 micrograms/ml, FIG. 1. How it is done: 5000 cells/well of murine B16 melanoma cells were plated in a 96-well plate and incubated for 48 hours with varying concentrations of cyclodextrin tetradecasulfate (0-90 micrograms/ml). Non-radioactive assay solution was prepared according to manufacturer's protocol (Promega Cell Titer 96 AQueous Assay Reagents). Cells were read using a Biorad benchmark microplate reader 2 hours after the assay solution was added to the well.

In a further test the test system is lung metastasis. Briefly: Lung metastasis in tumorigenic mice treated via drinking water. To be noted: C57B1-6 mice, 10 mg/ml in drinking water for two weeks, FIG. 2. It is filed as in vivo. How it is done:
C57B1-6 mice (n=2) were treated with 10 mg/ml β-cyclodextrin tetradecasulfate in their drinking water for two weeks. The control animal (n=2) was given cyclodextrin-free drinking water.

As for β-cyclodextrin tetradecasulfate, the cell proliferation entry in test [1] is “cell proliferation decreases”. In the test with lung metastasis, the “lung metastasis compared to the control animal” value is recorded as “⅓ fewer lung metastasis”.
